In BindingDB's records for doi:10.1021/jm061299k (Bayer Healthcare Pharmaceuticals, 2007):

The compounds below were run against T1, Peroxisome proliferator-activated receptor delta (Homo sapiens, UniProt Q03181) (assay: PPAR FRET Assay). Details: 25 °C.
T1 sequence (Q03181 whole entry): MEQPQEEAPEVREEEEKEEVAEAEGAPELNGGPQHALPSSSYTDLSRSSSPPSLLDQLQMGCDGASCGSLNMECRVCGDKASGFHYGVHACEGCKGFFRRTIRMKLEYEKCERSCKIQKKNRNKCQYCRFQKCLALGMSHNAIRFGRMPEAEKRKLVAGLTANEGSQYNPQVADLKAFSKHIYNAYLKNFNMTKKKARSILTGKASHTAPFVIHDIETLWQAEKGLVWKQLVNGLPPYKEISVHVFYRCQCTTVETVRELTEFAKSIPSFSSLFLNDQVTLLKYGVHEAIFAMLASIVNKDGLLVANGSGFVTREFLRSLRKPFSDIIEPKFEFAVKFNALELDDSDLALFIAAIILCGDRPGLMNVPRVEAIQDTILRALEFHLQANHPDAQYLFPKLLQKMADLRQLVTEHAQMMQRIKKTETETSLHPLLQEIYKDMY
Procedure: (§1) Activity was assessed by measuring the human PPAR ligand binding domain with the co-activator protein. Europium labeled anti-GST antibody, streptavidin-labeled APC, biotin-labeled co-activator protein, and PPAR-GST were incubated at room temperature in buffer in the presence or absence of test compound.

EC50 | SMILES
4 nM | CCCc1cc(-c2nc3c(s2)CCCO3)ccc1OCCCOc1ccc2c(c1)CC[C@H]2CC(=O)O [2-[(1S)-5-[3-(2-propyl-4-{5H,6H,7H-pyrano[2,3-d][1,3]thiazol-2-yl}phenoxy)propoxy]-2,3-dihydro-1H-inden-1-yl]acetic acid]

Each compound was assayed against T2, Peroxisome proliferator-activated receptor alpha (Homo sapiens, UniProt Q07869) (assay: PPAR FRET Assay). Details: 25 °C.
T2 sequence (Q07869 whole entry): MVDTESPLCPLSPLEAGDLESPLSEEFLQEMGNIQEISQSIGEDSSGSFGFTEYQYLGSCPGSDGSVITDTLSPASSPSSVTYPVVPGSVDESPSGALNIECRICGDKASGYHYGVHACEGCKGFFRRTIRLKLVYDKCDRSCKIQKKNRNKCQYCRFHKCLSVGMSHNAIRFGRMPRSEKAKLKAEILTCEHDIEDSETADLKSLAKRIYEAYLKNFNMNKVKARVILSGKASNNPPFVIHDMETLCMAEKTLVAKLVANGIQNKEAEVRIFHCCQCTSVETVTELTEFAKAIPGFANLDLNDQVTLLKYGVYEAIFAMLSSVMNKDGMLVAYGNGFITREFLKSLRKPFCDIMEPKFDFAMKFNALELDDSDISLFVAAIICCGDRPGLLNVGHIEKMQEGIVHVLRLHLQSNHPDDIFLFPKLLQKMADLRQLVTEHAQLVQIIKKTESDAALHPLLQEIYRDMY
Procedure: as §1

EC50 | SMILES
101 nM | CCCc1cc(-c2nc3c(s2)CCCO3)ccc1OCCCOc1ccc2c(c1)CC[C@H]2CC(=O)O [2-[(1S)-5-[3-(2-propyl-4-{5H,6H,7H-pyrano[2,3-d][1,3]thiazol-2-yl}phenoxy)propoxy]-2,3-dihydro-1H-inden-1-yl]acetic acid]

The compounds below were run against Peroxisome proliferator-activated receptor gamma (Mus musculus) (UniProt P37238) (assay: PPARgamma activity was assessed by the cell-based insulin receptor binding assay (IRBA) in mouse 3T3-L1 cells, measuring the increase in the number of insulin receptors). Details: not given.

SMILES | EC50
O=C(O)C[C@@H]1CCc2cc(OCCCOc3ccccc3)ccc21 [2-[(1S)-5-(3-phenoxypropoxy)-2,3-dihydro-1H-inden-1-yl]acetic acid] | > 10000 nM
COc1cc(-c2nc(C)c(C(=O)N(C)C)s2)ccc1OCCCOc1ccc2c(c1)CC[C@H]2CC(=O)O [2-[(1S)-5-(3-{4-[5-(dimethylcarbamoyl)-4-methyl-1,3-thiazol-2-yl]-2-methoxyphenoxy}propoxy)-2,3-dihydro-1H-inden-1-yl]acetic acid] | 312 nM
CCCc1cc(-c2nc(C)c(C(=O)N(C)C)s2)ccc1OCCCOc1ccc2c(c1)CC[C@H]2CC(=O)O [2-[(1S)-5-(3-{4-[5-(dimethylcarbamoyl)-4-methyl-1,3-thiazol-2-yl]-2-propylphenoxy}propoxy)-2,3-dihydro-1H-inden-1-yl]acetic acid] | 20 nM
Cc1ccc(OCCCOc2ccc3c(c2)CC[C@H]3CC(=O)O)cc1C [2-[(1S)-5-[3-(3,4-dimethylphenoxy)propoxy]-2,3-dihydro-1H-inden-1-yl]acetic acid] | > 10000 nM
CCCc1c(OCCCOc2ccc3c(c2)CC[C@H]3CC(=O)O)ccc2c1ccn2C [2-[(1S)-5-{3-[(1-methyl-4-propyl-1H-indol-5-yl)oxy]propoxy}-2,3-dihydro-1H-inden-1-yl]acetic acid] | > 10000 nM

Continued, values first:

EC50 | SMILES
> 10000 nM | O=C(O)C[C@@H]1CCc2cc(OCCCOc3ccc4cnoc4c3)ccc21 [2-[(1S)-5-[3-(1,2-benzoxazol-6-yloxy)propoxy]-2,3-dihydro-1H-inden-1-yl]acetic acid]
> 10000 nM | O=C(O)C[C@@H]1CCc2cc(OCCCOc3ccc4ncoc4c3)ccc21 [2-[(1S)-5-[3-(1,3-benzoxazol-6-yloxy)propoxy]-2,3-dihydro-1H-inden-1-yl]acetic acid]
> 10000 nM | O=C(O)C[C@@H]1CCc2cc(OCCCOc3ccc4cc[nH]c4c3)ccc21 [2-[(1S)-5-[3-(1H-indol-6-yloxy)propoxy]-2,3-dihydro-1H-inden-1-yl]acetic acid]
